Residues, ends and D or L forms follow the SMILES beside them.
Experiments:
Experiment in all cases: In-house protein microarrays (with or without 5 mM DTT), protein named per line
Type in all cases: binding
SH2 and PTB domains [1] = target: T1, SH2 and PTB domains (Homo sapiens, UniProt P27986)
T1 construct: thioredoxin; made in house; host or cells: BL21(DE3)pLysS E. coli
In short: (§1)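 KD values come from rhodamine fluorescence of duplicate spots after subtraction of a thioredoxin control. Domains were printed at ~40 µM on aldehyde slides, blocked 1 h at room temperature in pH 7.8 HEPES/KCl buffer with 5 mM DTT and 1% BSA, then peptide-probed.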

SH2 and PTB domains [2] = target: T2, SH2 and PTB domains (Homo sapiens, UniProt P08631); conditions: protein HCK
T2 construct: thioredoxin; made in house; host or cells: BL21(DE3)pLysS E. coli
T2 sequence (P08631 whole entry, the tested form may be a part): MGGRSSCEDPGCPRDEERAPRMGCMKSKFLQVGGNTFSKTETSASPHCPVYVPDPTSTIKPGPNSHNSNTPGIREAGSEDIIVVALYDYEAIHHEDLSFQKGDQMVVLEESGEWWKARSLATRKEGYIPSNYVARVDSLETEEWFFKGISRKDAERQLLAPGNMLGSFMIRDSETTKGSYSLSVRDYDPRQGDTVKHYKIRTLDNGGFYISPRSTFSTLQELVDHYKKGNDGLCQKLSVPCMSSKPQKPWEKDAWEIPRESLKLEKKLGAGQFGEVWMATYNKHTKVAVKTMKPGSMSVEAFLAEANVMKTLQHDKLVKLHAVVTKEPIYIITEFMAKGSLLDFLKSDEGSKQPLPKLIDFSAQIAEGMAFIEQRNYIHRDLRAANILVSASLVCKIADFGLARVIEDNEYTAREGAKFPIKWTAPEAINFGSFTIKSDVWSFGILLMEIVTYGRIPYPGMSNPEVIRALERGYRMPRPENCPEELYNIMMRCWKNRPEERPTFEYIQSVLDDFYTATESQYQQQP
In short: as §1

SH2 and PTB domains [3] = target: T3, SH2 and PTB domains (Homo sapiens, UniProt P52735); conditions: protein VAV2
T3 construct: thioredoxin; made in house; host or cells: BL21(DE3)pLysS E. coli
T3 sequence (P52735 1-878): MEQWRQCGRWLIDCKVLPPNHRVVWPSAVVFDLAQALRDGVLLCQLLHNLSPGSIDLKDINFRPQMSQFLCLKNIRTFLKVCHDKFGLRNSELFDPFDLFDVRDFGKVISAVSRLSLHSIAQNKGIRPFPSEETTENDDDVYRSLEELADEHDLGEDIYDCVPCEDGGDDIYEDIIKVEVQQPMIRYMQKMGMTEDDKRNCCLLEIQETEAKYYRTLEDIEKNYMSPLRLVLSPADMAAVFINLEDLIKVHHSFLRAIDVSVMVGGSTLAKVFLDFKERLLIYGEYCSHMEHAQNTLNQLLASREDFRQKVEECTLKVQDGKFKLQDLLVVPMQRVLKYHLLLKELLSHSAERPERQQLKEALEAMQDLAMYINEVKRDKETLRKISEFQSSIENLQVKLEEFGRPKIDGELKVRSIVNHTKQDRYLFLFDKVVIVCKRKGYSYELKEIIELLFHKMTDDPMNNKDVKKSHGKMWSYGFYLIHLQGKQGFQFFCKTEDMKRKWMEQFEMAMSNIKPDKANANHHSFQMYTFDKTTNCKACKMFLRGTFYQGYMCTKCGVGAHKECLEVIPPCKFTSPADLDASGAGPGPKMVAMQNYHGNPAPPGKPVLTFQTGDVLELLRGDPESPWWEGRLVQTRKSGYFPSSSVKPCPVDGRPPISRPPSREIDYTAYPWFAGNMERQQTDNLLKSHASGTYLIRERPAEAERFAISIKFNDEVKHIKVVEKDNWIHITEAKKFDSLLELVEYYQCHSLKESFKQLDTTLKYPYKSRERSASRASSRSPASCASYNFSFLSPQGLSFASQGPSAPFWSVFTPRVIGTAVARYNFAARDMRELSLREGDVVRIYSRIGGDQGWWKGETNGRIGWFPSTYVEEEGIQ
In short: as §1

SH2 and PTB domains [4] = target: T4, SH2 and PTB domains (Homo sapiens, UniProt Q96JZ2); conditions: protein HSH2D; PM assay replicate # 39307; array fabrication # 39286
T4 construct: thioredoxin; made in house; host or cells: BL21(DE3)pLysS E. coli
T4 sequence (Q96JZ2 whole entry, the tested form may be a part): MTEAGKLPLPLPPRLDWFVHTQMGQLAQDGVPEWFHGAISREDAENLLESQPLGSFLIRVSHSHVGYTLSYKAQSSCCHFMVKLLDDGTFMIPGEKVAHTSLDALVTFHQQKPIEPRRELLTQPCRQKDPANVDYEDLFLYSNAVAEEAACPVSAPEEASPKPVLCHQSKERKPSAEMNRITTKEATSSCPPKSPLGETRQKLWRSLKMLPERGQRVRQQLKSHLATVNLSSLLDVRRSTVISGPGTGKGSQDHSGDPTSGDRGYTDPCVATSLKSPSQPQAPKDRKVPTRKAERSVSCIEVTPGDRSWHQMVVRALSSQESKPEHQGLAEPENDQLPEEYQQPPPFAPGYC
In short: as §1

[5] = PM assay replicate # 39336, array fabrication # 39329
[6] = PM assay replicate # 39337, array fabrication # 39329
[7] = PM assay replicate # 39307, array fabrication # 39286

T1 sequence (P27986 whole entry, the tested form may be a part): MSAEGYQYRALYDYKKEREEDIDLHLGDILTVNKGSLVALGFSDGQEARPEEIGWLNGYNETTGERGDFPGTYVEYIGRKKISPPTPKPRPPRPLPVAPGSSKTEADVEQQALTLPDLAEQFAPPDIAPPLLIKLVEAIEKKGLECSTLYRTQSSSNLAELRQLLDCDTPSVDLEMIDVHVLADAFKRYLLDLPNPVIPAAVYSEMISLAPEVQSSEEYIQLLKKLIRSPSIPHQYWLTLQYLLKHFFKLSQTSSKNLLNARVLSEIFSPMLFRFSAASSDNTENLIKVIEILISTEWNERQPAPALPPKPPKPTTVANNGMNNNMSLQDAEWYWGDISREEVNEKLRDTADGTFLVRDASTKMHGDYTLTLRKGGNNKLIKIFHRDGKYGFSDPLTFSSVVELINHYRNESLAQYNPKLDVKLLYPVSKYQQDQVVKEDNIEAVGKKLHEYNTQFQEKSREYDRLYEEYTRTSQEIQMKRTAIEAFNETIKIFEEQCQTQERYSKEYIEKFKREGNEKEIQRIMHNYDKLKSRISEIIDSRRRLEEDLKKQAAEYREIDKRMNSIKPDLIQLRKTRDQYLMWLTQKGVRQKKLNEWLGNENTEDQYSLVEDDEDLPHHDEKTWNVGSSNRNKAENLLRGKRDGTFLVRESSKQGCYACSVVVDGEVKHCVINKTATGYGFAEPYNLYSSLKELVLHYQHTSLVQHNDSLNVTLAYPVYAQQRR

For `CC(C)C[C@H](NC(=O)[C@@H]1CCCN1C(=O)[C@H](C)NC(=O)[C@@H](NC(=O)[C@H](Cc1ccc(OP(=O)(O)O)cc1)NC(=O)CNC(=O)[C@H](CC(=O)O)NC(=O)[C@@H](NC(=O)[C@@H](N)CCC(=O)O)[C@@H](C)O)C(C)C)C(=O)N[C@H](C(=O)N[C@@H](CS)C(=O)N[C@@H](CO)C(=O)N[C@@H](CC(=O)O)C(=O)O)[C@@H](C)O` [ErbB2 pY1127], the “Kd” value (SH2 and PTB domains [1]; protein PIK3R1-N, PM assay replicate # 39336, array fabrication # 39329) was 19 nM, the “Kd” value (SH2 and PTB domains [1]; protein PIK3R1-N, PM assay replicate # 39337, array fabrication # 39329) was 220 nM and the “Kd” value (SH2 and PTB domains [2]; [5]) was 4360 nM. The “Kd” value (SH2 and PTB domains [2]; [6]) was 250 nM, the “Kd” value (SH2 and PTB domains [3]; [5]) was 1590 nM and the “Kd” value (SH2 and PTB domains [3]; [6]) was 170 nM.

In the case of `CCN(CC)c1ccc2c(-c3ccc(C(=O)N[C@@H](CC(N)=O)C(=O)NCC(=O)N4CCC[C@H]4C(=O)N4CCC[C@H]4C(=O)N[C@@H](CCCCN)C(=O)N[C@@H](C)C(=O)N[C@@H](CCC(=O)O)C(=O)N[C@@H](CC(=O)O)C(=O)N[C@@H](CCC(=O)O)C(=O)N[C@@H](Cc4ccc(OP(=O)(O)O)cc4)C(=O)N[C@H](C(=O)N[C@@H](CC(N)=O)C(=O)N[C@@H](CCC(=O)O)C(=O)N4CCC[C@H]4C(=O)N[C@@H](CC(C)C)C(=O)N[C@@H](Cc4ccc(O)cc4)C(=O)N[C@@H](CC(C)C)C(=O)N[C@@H](CC(=O)O)C(=O)O)C(C)C)cc3C(=O)[O-])c3ccc(=[N+](CC)CC)cc-3oc2c1` [ErbB4 1202 (18-mer)] (HELM PEPTIDE1{[CCN(CC)c1ccc2c(-c3ccc(C(=O)[*:2])cc3C(=O)[O-])c3ccc(=[N+](CC)CC)cc-3oc2c1].N.G.P.P.K.A.E.D.E.[O=C([C@H](Cc1ccc(OP(=O)(O)O)cc1)N[*:1])[*:2]].V.N.E.P.L.Y.L.D}$$$$V2.0), the “Kd” value (SH2 and PTB domains [1]; protein PIK3R1-NC, PM assay replicate # 39307, array fabrication # 39286) is reported as 170 nM, the “Kd” value (SH2 and PTB domains [1]; protein PIK3R1-NC, PM assay replicate # 39337, array fabrication # 39329) is reported as 540 nM and the “Kd” value (SH2 and PTB domains [4]) is reported as 970 nM. The “Kd” value (SH2 and PTB domains [3]; [7]) was 9500 nM.

In the case of `CC[C@H](C)[C@H](NC(=O)[C@H](CC(N)=O)NC(=O)[C@H](CC(N)=O)NC(=O)[C@H](CCCCN)NC(=O)[C@H](CC(C)C)NC(=O)[C@H](Cc1ccc(OP(=O)(O)O)cc1)NC(=O)[C@H](CCC(=O)O)NC(=O)[C@H](C)NC(=O)[C@H](CCCCN)NC(=O)CNC(=O)[C@H](CC(C)C)NC(=O)[C@@H](NC(=O)[C@H](CC(N)=O)NC(=O)[C@H](C)NC(=O)[C@@H](N)Cc1ccccc1)[C@@H](C)O)C(=O)N[C@@H](CC(C)C)C(=O)N[C@@H](CO)C(=O)N[C@@H](CC(=O)O)C(=O)O` [ErbB4 pY1221 (18-mer)] (HELM PEPTIDE1{F.A.N.T.L.G.K.A.E.[O=C([C@H](Cc1ccc(OP(=O)(O)O)cc1)N[*:1])[*:2]].L.K.N.N.I.L.S.D}$$$$V2.0), the “Kd” value (SH2 and PTB domains [4]) is reported as 990 nM and the “Kd” value (SH2 and PTB domains [2]; [7]) is reported as 70 nM.

Source: publication PMC3433420 (PLoS ONE, 2012)
